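Step 1: Grow cells in 96-well plates. Step 2: Expose to compound for 48 hours at 5 concentrations. Step 3: Interpolate endpoints linearly; if unreached, use highest concentration. GI50 marks 50% less growth. The concentration for full growth arrest is given as TGI.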 Where a SMILES comes first, the peptide text is derived from it. The star is where a group is joined. Boc = CC(C)(C)OC(=O)*

The first assay deals with SF-268 CNS. Briefly: growth of human tumour cells (NCI), 48 h.
Consider `C(=N\NC1=NCCCN1)/c1ccc2ccccc2c1`, for which the TGI was found to be 30.2 µM.

In the case of `CCOC(=N)n1c(=O)n(C2=NCCN2)c2ccccc21`, the TGI is above 100 µM.

The compound `O=C(NCCN1CCOCC1)c1ccc2cc(C(=O)N3CC(CCl)c4ccc([N+](=O)[O-])cc43)[nH]c2c1` (stereo unspecified) registered a TGI of 31.3 µM.

Regarding `Cc1csc(-c2cn(C)c3c2C(=O)C(N)=CC3=O)n1`, the TGI is above 100 µM.

In the case of `Nc1c(-c2cccc3ccccc23)c2ccc([N+](=O)[O-])cc2c(=O)n1-c1nc2ccccc2s1`, the TGI is above 31.7 µM.

`CC1CC[C@@]2(OC1)OC1C[C@H]3[C@@H]4CC[C@H]5CC(OC6OC(CO)C(OC7OC(CO)C(O)C(O)C7OC7OC(CO)C(O)C(O)C7O)C(O)C6O)CCC5(C)[C@H]4CCC3(C)C1[C@@H]2C` (stereo partly specified) gave a TGI of 8.77 µM.

As for `C/C=C/C=C/c1nc(C#N)c(N)o1`, the TGI is above 100 µM.

Take `O=c1c2ccccc2nc2[nH][nH]c(=S)n12`: the TGI was above 100 µM.

In turn, `CC(C)(C)OC(=O)NCC(=O)NCC(=O)NCC(=O)NCC(=O)O` (Boc-GGGG-OH) returned a TGI above 100 µM.

For the compound `COc1ccc(CC(O)CN2CCOCC2)cc1` (stereo unspecified), the TGI is above 100 µM.

In the case of `CC(C)COP(=O)(OCC(C)C)C(NS(=O)(=O)c1ccccc1)(C(F)(F)F)C(F)(F)F`, the TGI stood at 34.7 µM.

`CN(C)CCCN1C(=S)N(CCCN(C)C)c2c3cc(O)ccc3nc3c([N+](=O)[O-])ccc1c23`: the TGI worked out at 7 µM.

The compound `COc1cc(C2SCC(=O)N2c2ccc(NC(=O)c3ccc(N4C(=O)CSC4c4cc(OC)c(OC)c(OC)c4)cc3)cc2)cc(OC)c1OC` (stereo unspecified) registered a TGI above 100 µM.

In a further assay the test system is TK-10 renal. Briefly: growth of human tumour cells (NCI), 48 h.
The compound `c1ccc2sc(SCSc3nc4ccccc4s3)nc2c1` returned a TGI above 100 µM.

`O=c1oc(-c2ccc(O)c(O)c2)cc2cccc(O)c12`: the TGI was above 49.1 µM.

In the case of `COc1cc2c(cc1-c1c(C)noc1C)cc(C)c(=O)n2Cc1ccccn1`, the GI50 is 0.34 µM and the TGI was 18.3 µM.

With `CCOC(=O)c1c(-c2ccc(OC)cc2)c(C#N)c(=S)n(C2OC(COC(C)=O)C(OC(C)=O)C(OC(C)=O)C2OC(C)=O)c1C` (stereo unspecified), the TGI is above 100 µM.

`C1=CC2=CC=CC3c4nc5ccc6ccccc6c5nc4C(=C1)C23` (stereo unspecified): the TGI is above 100 µM.

`O=c1cc(N=P(c2ccccc2)(c2ccccc2)c2ccccc2)n(-c2ccccc2)c(=O)n1-c1ccccc1` returned a TGI above 100 µM.

Compound `O=C(NCCCN(CCCCN(CCCNC(=O)C(F)(F)F)Cc1ccccc1)Cc1ccccc1)C(F)(F)F` yielded a TGI of 53.5 µM.

Compound `O=C(CCCN1CCC2(CC1)CC(=O)N(N1CCOCC1)C2=O)c1ccccc1` returned a TGI above 100 µM.

Compound `COc1ccc(C(OCC2OC(n3cc(C)c(=O)[nH]c3=O)CC2n2cc(Cn3cc(F)c(=O)[nH]c3=O)nn2)(c2ccccc2)c2ccccc2)cc1` (stereo unspecified) had a TGI of 33.9 µM.

`C=CCn1c(=O)ccn(COCCO)c1=O` displayed a TGI above 100 µM.

As for `Oc1ccccc1/C=N/c1nc2cc3sc(/N=C/c4ccccc4O)nc3cc2s1`, the TGI was above 100 µM.

`CCCCC1c2c([nH]c3ccccc23)C2C(=O)N(c3ccc(OC)cc3)C(=O)C2C1CCC` (stereo unspecified) displayed a TGI above 10 µM.

The compound `C(=N\NC1=NCCCN1)/c1ccc2ccccc2c1` displayed a TGI of 36.8 µM.

The compound `CCOC(=N)n1c(=O)n(C2=NCCN2)c2ccccc21` displayed a TGI above 100 µM.

`O=C(NCCN1CCOCC1)c1ccc2cc(C(=O)N3CC(CCl)c4ccc([N+](=O)[O-])cc43)[nH]c2c1` (stereo unspecified) came in with a TGI of 36.6 µM.

As to `Cc1csc(-c2cn(C)c3c2C(=O)C(N)=CC3=O)n1`, the TGI was above 100 µM.

In turn, `Nc1c(-c2cccc3ccccc23)c2ccc([N+](=O)[O-])cc2c(=O)n1-c1nc2ccccc2s1` came in with a TGI above 100 µM.

`CC1CC[C@@]2(OC1)OC1C[C@H]3[C@@H]4CC[C@H]5CC(OC6OC(CO)C(OC7OC(CO)C(O)C(O)C7OC7OC(CO)C(O)C(O)C7O)C(O)C6O)CCC5(C)[C@H]4CCC3(C)C1[C@@H]2C` (stereo partly specified) gave a TGI of 5.36 µM.

`C/C=C/C=C/c1nc(C#N)c(N)o1`: the TGI was above 100 µM.

`O=c1c2ccccc2nc2[nH][nH]c(=S)n12` gave a TGI above 100 µM.

`CC(C)(C)OC(=O)NCC(=O)NCC(=O)NCC(=O)NCC(=O)O` (Boc-GGGG-OH) gave a TGI above 100 µM.

Compound `COc1ccc(CC(O)CN2CCOCC2)cc1` (stereo unspecified) had a TGI above 100 µM.

For the compound `CC(C)COP(=O)(OCC(C)C)C(NS(=O)(=O)c1ccccc1)(C(F)(F)F)C(F)(F)F`, the TGI was found to be 15.6 µM.

In the case of `CN(C)CCCN1C(=S)N(CCCN(C)C)c2c3cc(O)ccc3nc3c([N+](=O)[O-])ccc1c23`, the TGI came out at 29 µM.

As for `COc1cc(C2SCC(=O)N2c2ccc(NC(=O)c3ccc(N4C(=O)CSC4c4cc(OC)c(OC)c(OC)c4)cc3)cc2)cc(OC)c1OC` (stereo unspecified), the TGI was above 100 µM.

A further assay relates to SK-MEL-28 melanoma. Briefly: growth of human tumour cells (NCI), 48 h.
Regarding `c1ccc2sc(SCSc3nc4ccccc4s3)nc2c1`, the TGI is above 100 µM.

Take `O=c1oc(-c2ccc(O)c(O)c2)cc2cccc(O)c12`: the GI50 is 24.6 µM and the TGI was 87.3 µM.

With `COc1cc2c(cc1-c1c(C)noc1C)cc(C)c(=O)n2Cc1ccccn1`, the GI50 is 3.33 µM and the TGI was above 100 µM.

`CCOC(=O)c1c(-c2ccc(OC)cc2)c(C#N)c(=S)n(C2OC(COC(C)=O)C(OC(C)=O)C(OC(C)=O)C2OC(C)=O)c1C` (stereo unspecified) had a TGI above 100 µM.

In turn, `C1=CC2=CC=CC3c4nc5ccc6ccccc6c5nc4C(=C1)C23` (stereo unspecified) showed a TGI above 100 µM.

Consider `O=c1cc(N=P(c2ccccc2)(c2ccccc2)c2ccccc2)n(-c2ccccc2)c(=O)n1-c1ccccc1`, for which the TGI was above 100 µM.

Consider `O=C(NCCCN(CCCCN(CCCNC(=O)C(F)(F)F)Cc1ccccc1)Cc1ccccc1)C(F)(F)F`, for which the TGI came to 25.1 µM.

Consider `O=C(CCCN1CCC2(CC1)CC(=O)N(N1CCOCC1)C2=O)c1ccccc1`, for which the TGI is above 100 µM.

Compound `COc1ccc(C(OCC2OC(n3cc(C)c(=O)[nH]c3=O)CC2n2cc(Cn3cc(F)c(=O)[nH]c3=O)nn2)(c2ccccc2)c2ccccc2)cc1` (stereo unspecified) showed a TGI of 24.9 µM.

For `C=CCn1c(=O)ccn(COCCO)c1=O`, the TGI was above 100 µM.

In turn, `Oc1ccccc1/C=N/c1nc2cc3sc(/N=C/c4ccccc4O)nc3cc2s1` showed a TGI above 100 µM.

As for `CCCCC1c2c([nH]c3ccccc23)C2C(=O)N(c3ccc(OC)cc3)C(=O)C2C1CCC` (stereo unspecified), the TGI was above 10 µM.

`C(=N\NC1=NCCCN1)/c1ccc2ccccc2c1`: the TGI turned out to be 31.9 µM.

`CCOC(=N)n1c(=O)n(C2=NCCN2)c2ccccc21` had a TGI above 100 µM.

As for `O=C(NCCN1CCOCC1)c1ccc2cc(C(=O)N3CC(CCl)c4ccc([N+](=O)[O-])cc43)[nH]c2c1` (stereo unspecified), the TGI is above 100 µM.

Regarding `Cc1csc(-c2cn(C)c3c2C(=O)C(N)=CC3=O)n1`, the TGI was above 100 µM.

`Nc1c(-c2cccc3ccccc23)c2ccc([N+](=O)[O-])cc2c(=O)n1-c1nc2ccccc2s1` showed a TGI above 100 µM.

Turning to `CC1CC[C@@]2(OC1)OC1C[C@H]3[C@@H]4CC[C@H]5CC(OC6OC(CO)C(OC7OC(CO)C(O)C(O)C7OC7OC(CO)C(O)C(O)C7O)C(O)C6O)CCC5(C)[C@H]4CCC3(C)C1[C@@H]2C` (stereo partly specified), the TGI is 8.32 µM.

`C/C=C/C=C/c1nc(C#N)c(N)o1`: the TGI is above 100 µM.

The compound `O=c1c2ccccc2nc2[nH][nH]c(=S)n12` came in with a TGI above 100 µM.

Regarding `CC(C)(C)OC(=O)NCC(=O)NCC(=O)NCC(=O)NCC(=O)O` (Boc-GGGG-OH), the TGI is above 100 µM.

As for `COc1ccc(CC(O)CN2CCOCC2)cc1` (stereo unspecified), the TGI is above 100 µM.

`CC(C)COP(=O)(OCC(C)C)C(NS(=O)(=O)c1ccccc1)(C(F)(F)F)C(F)(F)F` gave a TGI of 37.1 µM.

In turn, `CN(C)CCCN1C(=S)N(CCCN(C)C)c2c3cc(O)ccc3nc3c([N+](=O)[O-])ccc1c23` gave a TGI of 10.8 µM.

`COc1cc(C2SCC(=O)N2c2ccc(NC(=O)c3ccc(N4C(=O)CSC4c4cc(OC)c(OC)c(OC)c4)cc3)cc2)cc(OC)c1OC` (stereo unspecified): the TGI was above 100 µM.

The values are drawn from PubChem BioAssay (NCI).
